Reference: US20250120952A1, “17-Beta-Hydroxysteroid Dehydrogenase Type 13 Inhibitors And Methods Of Use Thereof” (ENANTA PHARMACEUTICALS, INC., priority 2023, published 2025)

Legend:
H441 cells = assay: Collagen / COL1A1 mRNA in H441 cells; type: cell-based, human; settings: H441 (high HSD17B13), +/-TGFB1 10 ng/mL, inhibitor 3 uM, 24 hours; effect only in H441, not in A549 (low HSD17B13) (FIG. 11)
Method: (§1) Human lung cancer cell lines with high (H441) or low (A549) expression of HSD17B13, as confirmed by western blot, were acquired from ATCC and maintained according to manufacturer's instructions. Cells were seeded at a confluency of 2e5 cells/well (A549) or 4e5 cells/well (H441) in a 6-well format. Once cells were 70% confluent, media was removed and replenished with starvation media for 24 hours. Afterward starvation media was removed and replenished with treatment media for 24 hours. Compound 348 and Compound 812 were used as HSD17B13 inhibitors. For gene expression analysis, treatment media consisted of +/−TGFB1 (10 ng/mL) and +/−HSD17B13 inhibitor (3 uM). For HSD17B13 enzymatic activity, treatment media consisted of +/−d2-Estradiol (Cayman Chemicals) and +/−HSD17B13 inhibitor (0.3 uM, 1 uM, 3 uM); supernatants were collected to measure estradiol conversion to estrone by rapid fire mass spectrometry.

HSD17B13 = biological target: T1, HSD17B13 (Homo sapiens, UniProt Q7Z5P4); assay: HSD17B13 enzymatic activity in H441 cells (estradiol conversion to estrone, rapid fire mass spectrometry); type: cell-based; settings: H441 (high HSD17B13), inhibitor 0.3 uM, 1 uM, 3 uM, 24 hours; effect only in H441, not in A549 (low HSD17B13) (FIG. 10)
T1 construct: Human lung cancer cell lines with high (H441) or low (A549) expression of HSD17B13, as confirmed by western blot; host or cells: H441 human lung cancer cell line
T1 sequence (Q7Z5P4 20-300): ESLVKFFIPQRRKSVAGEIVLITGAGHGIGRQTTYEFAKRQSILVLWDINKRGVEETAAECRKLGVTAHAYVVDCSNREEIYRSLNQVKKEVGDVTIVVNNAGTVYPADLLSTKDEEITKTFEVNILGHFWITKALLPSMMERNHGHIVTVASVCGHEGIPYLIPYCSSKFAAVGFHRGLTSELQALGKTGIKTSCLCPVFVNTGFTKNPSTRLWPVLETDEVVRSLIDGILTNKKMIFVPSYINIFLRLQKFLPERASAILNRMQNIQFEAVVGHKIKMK
Method: as §1

COc1cc(C(=O)O)ccc1NS(=O)(=O)c1csc(-c2ccc(C3CCC(C(F)(F)F)CC3)cc2)n1 (centres unmarked) [Compound 348]
COL1A1 (Collagen) (H441 cells): decreased
enzymatic activity (d2-estradiol conversion to estrone) (HSD17B13): decreased
